Test results: patent publication US20140357713A1, “ANTIMICROBIAL COMPOUNDS AND METHODS OF USE” (NexMed Holdings, Inc., priority 2012, published 2014)
Read-outs that look alike come from different tables or passages of the source.

How the values were obtained:
[1] = test system: Aspergillus niger (CMCC 98003); assay: Minimum inhibitory concentration (MIC) assay, Example 33; assay type: cell-based; settings: Aspergillus niger
Method in brief: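 Broth microdilution MIC per CLSI guidelines in RPMI 1640 with serial 2-fold compound dilutions. Spore suspension from sporulating colonies adjusted to OD530 0.09-0.13, diluted 1:50 as 2× inoculum and added 1:2 to drug wells; plates incubated at 35 °C and MIC read per CLSI.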

pH (Table 1) = assay type: physicochemical
Pseudomonas aeruginosa = assay: Extended time kill study, Example 34 (0 to 24 h); assay type: cell-based
Method in brief: (§1)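 Strain suspensions prepared as for MIC testing were mixed 1:1 with compound solution at higher multiples of MIC. Samples taken over 0 to 24 h were diluted in test medium and plated on agar, and colonies were counted after 24–48 h incubation.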

Escherichia coli = assay: Extended time kill study, Example 34 (0 to 24 h); assay type: cell-based
Method in brief: as §1

[2] = test system: Candida albicans (ATCC 90029); assay: Minimum inhibitory concentration (MIC) assay, Example 33; assay type: cell-based; settings: Candida albicans
Method in brief: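 Broth microdilution per CLSI guidelines in RPMI 1640; inoculum set to OD530 0.08–0.13, diluted 1:50 then 1:20 to 2× strength and mixed 1:2 with 2-fold serial compound dilutions. Incubated at 35° C; MIC read per CLSI.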

[3] = test system: Pseudomonas aeruginosa (ATCC 27853); assay: Time kill study, Example 33 (0 to 5 min); assay type: cell-based; settings: 1×MIC
Method in brief: (§2)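 Performed per CLSI guidelines. Strain suspensions prepared as for MIC testing were mixed with compound solution in equal volume; samples taken at 0 min, 30 sec, 1 min and 5 mins were diluted in test medium, streaked on agar, and colonies counted after 24 to 48 hrs to give viable counts in Log10 CFU/mL.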

[4] = test system: Candida albicans (ATCC 90029); assay: Time kill study, Example 33 (0 to 5 min); assay type: cell-based; settings: 1×MIC
Method in brief: as §2

[5] = test system: Staphylococcus aureus (ATCC 29213); assay: Time kill study, Example 33 (0 to 5 min); assay type: cell-based; settings: 1×MIC
Method in brief: as §2

Work on CCCCCCCCCCCCOC(=O)C(C)NC.Cl (stereo not shown) [Nex-59, Dodecyl 2-(methylamino)propanoate hydrochloride] yielded an MIC ([1]; CMCC98003, Table 19 summary, read-out: MIC) of 50 µg/mL, an MIC ([1]; CMCC98003, n = 1, read-out: MIC Aspergillus niger) of 50 µg/mL and an MIC ([1]; CMCC98003, n = 2, read-out: MIC Aspergillus niger) of 50 µg/mL. For the same molecule, the pH (pH (Table 1)) was 2.17, the “Viable counts, Pseudomonas aeruginosa time kill study” value (Pseudomonas aeruginosa; 1 × MIC, 1 h) was <1 Log10 CFU/mL and the “Viable counts, Pseudomonas aeruginosa time kill study” value (Pseudomonas aeruginosa; 1 × MIC, 2 h) was <1 Log10 CFU/mL. The “Viable counts, Pseudomonas aeruginosa time kill study” value (Pseudomonas aeruginosa; 1 × MIC, 4 h) was <1 Log10 CFU/mL, the “Viable counts, Pseudomonas aeruginosa time kill study” value (Pseudomonas aeruginosa; 1 × MIC, 6 h) was <1 Log10 CFU/mL and the “Viable counts, Pseudomonas aeruginosa time kill study” value (Pseudomonas aeruginosa; 1 × MIC, 24 h) was <1 Log10 CFU/mL. For the same molecule, the “Viable counts, Pseudomonas aeruginosa time kill study” value (Pseudomonas aeruginosa; 1×MIC, time 0) was 5.18 Log10 CFU/mL, the “Viable counts, Pseudomonas aeruginosa time kill study” value (Pseudomonas aeruginosa; 2 × MIC, 1 h) was <1 Log10 CFU/mL and the “Viable counts, Pseudomonas aeruginosa time kill study” value (Pseudomonas aeruginosa; 2 × MIC, 2 h) was <1 Log10 CFU/mL. For the same molecule, the “Viable counts, Pseudomonas aeruginosa time kill study” value (Pseudomonas aeruginosa; 2 × MIC, 4 h) was <1 Log10 CFU/mL, the “Viable counts, Pseudomonas aeruginosa time kill study” value (Pseudomonas aeruginosa; 2 × MIC, 6 h) was <1 Log10 CFU/mL and the “Viable counts, Pseudomonas aeruginosa time kill study” value (Pseudomonas aeruginosa; 2 × MIC, 24 h) was <1 Log10 CFU/mL. For the same molecule, the “Viable counts, Pseudomonas aeruginosa time kill study” value (Pseudomonas aeruginosa; 2 × MIC, time 0) was 5.16 Log10 CFU/mL, the “Viable counts, Pseudomonas aeruginosa time kill study” value (Pseudomonas aeruginosa; 4 × MIC, 1 h) was <1 Log10 CFU/mL and the “Viable counts, Pseudomonas aeruginosa time kill study” value (Pseudomonas aeruginosa; 4 × MIC, 2 h) was <1 Log10 CFU/mL. For the same molecule, the “Viable counts, Pseudomonas aeruginosa time kill study” value (Pseudomonas aeruginosa; 4 × MIC, 4 h) was <1 Log10 CFU/mL, the “Viable counts, Pseudomonas aeruginosa time kill study” value (Pseudomonas aeruginosa; 4 × MIC, 6 h) was <1 Log10 CFU/mL and the “Viable counts, Pseudomonas aeruginosa time kill study” value (Pseudomonas aeruginosa; 4 × MIC, 24 h) was <1 Log10 CFU/mL. For the same molecule, the “Viable counts, Pseudomonas aeruginosa time kill study” value (Pseudomonas aeruginosa; 4 × MIC, time 0) was 5.21 Log10 CFU/mL, the “Viable counts, Escherichia coli time kill study” value (Escherichia coli; 1 × MIC, 1 h) was 1 Log10 CFU/mL and the “Viable counts, Escherichia coli time kill study” value (Escherichia coli; 1 × MIC, 2 h) was <1 Log10 CFU/mL. For the same molecule, the “Viable counts, Escherichia coli time kill study” value (Escherichia coli; 1 × MIC, 4 h) was 1.85 Log10 CFU/mL, the “Viable counts, Escherichia coli time kill study” value (Escherichia coli; 1 × MIC, 6 h) was 2.81 Log10 CFU/mL and the “Viable counts, Escherichia coli time kill study” value (Escherichia coli; 1 × MIC, 24 h) was 7.91 Log10 CFU/mL. For the same molecule, the “Viable counts, Escherichia coli time kill study” value (Escherichia coli; 1×MIC, time 0) was 5 Log10 CFU/mL, the “Viable counts, Escherichia coli time kill study” value (Escherichia coli; 2 × MIC, 1 h) was <1 Log10 CFU/mL and the “Viable counts, Escherichia coli time kill study” value (Escherichia coli; 2 × MIC, 2 h) was <1 Log10 CFU/mL. For the same molecule, the “Viable counts, Escherichia coli time kill study” value (Escherichia coli; 2 × MIC, 4 h) was <1 Log10 CFU/mL, the “Viable counts, Escherichia coli time kill study” value (Escherichia coli; 2 × MIC, 6 h) was <1 Log10 CFU/mL and the “Viable counts, Escherichia coli time kill study” value (Escherichia coli; 2 × MIC, 24 h) was <1 Log10 CFU/mL. The “Viable counts, Escherichia coli time kill study” value (Escherichia coli; 2 × MIC, time 0) was 5.12 Log10 CFU/mL, the “Viable counts, Escherichia coli time kill study” value (Escherichia coli; 4 × MIC, 1 h) was <1 Log10 CFU/mL and the “Viable counts, Escherichia coli time kill study” value (Escherichia coli; 4 × MIC, 2 h) was <1 Log10 CFU/mL. The “Viable counts, Escherichia coli time kill study” value (Escherichia coli; 4 × MIC, 4 h) was <1 Log10 CFU/mL, the “Viable counts, Escherichia coli time kill study” value (Escherichia coli; 4 × MIC, 6 h) was <1 Log10 CFU/mL and the “Viable counts, Escherichia coli time kill study” value (Escherichia coli; 4 × MIC, 24 h) was <1 Log10 CFU/mL. The “Viable counts, Escherichia coli time kill study” value (Escherichia coli; 4 × MIC, time 0) was 5.04 Log10 CFU/mL, the MIC ([2]; ATCC90029, Table 19 summary, read-out: MIC) was 50 µg/mL and the MIC ([2]; ATCC90029, n = 1, read-out: MIC Candida albicans) was 25 µg/mL. The MIC ([2]; ATCC90029, n = 2, read-out: MIC Candida albicans) was 25 µg/mL, the “Viable counts, Pseudomonas aeruginosa time kill study” value ([3]; 0.5 min) was 5.26 Log10 CFU/mL and the “Viable counts, Pseudomonas aeruginosa time kill study” value ([3]; 1 min) was 4.78 Log10 CFU/mL. The “Viable counts, Pseudomonas aeruginosa time kill study” value ([3]; 5 min) was <3.52 Log10 CFU/mL, the “Viable counts, Pseudomonas aeruginosa time kill study” value ([3]; time 0) was 5.65 Log10 CFU/mL and the “Viable counts, Candida albicans time kill study” value ([4]; 0.5 min) was 5.18 Log10 CFU/mL. For the same molecule, the “Viable counts, Candida albicans time kill study” value ([4]; 1 min) was 5.32 Log10 CFU/mL, the “Viable counts, Candida albicans time kill study” value ([4]; 5 min) was 5.23 Log10 CFU/mL and the “Viable counts, Candida albicans time kill study” value ([4]; time 0) was 5.3 Log10 CFU/mL. The “Viable counts, Staphylococcus aureus time kill study” value ([5]; 0.5 min) was 6.33 Log10 CFU/mL, the “Viable counts, Staphylococcus aureus time kill study” value ([5]; 1 min) was 6.22 Log10 CFU/mL and the “Viable counts, Staphylococcus aureus time kill study” value ([5]; 5 min) was 6.15 Log10 CFU/mL. For the same molecule, the “Viable counts, Staphylococcus aureus time kill study” value ([5]; time 0) was 6.33 Log10 CFU/mL.
